Measured values taken from PubChem BioAssay AID2060326 (Molecular Pharmacology Branch, DTP, NCI, 2025).

Test system: MDA-MB-468 multi-cell spheroids, viability
Experiment: Anticancer human tumor MDA-MB-468 cell line growth inhibition [IpAb];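 further: spheroids exposed to agents for seven days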;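 on viability, T/C: 100% = DMSO vehicle control viability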
Conditions: for IC50: curve of first compound; for viability, T/C: stronger effect = lower value
In short: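 Spheroids of 60% malignant cells, 25% HUVEC and 15% MSC were exposed to targeted agents combined with ipatasertib or abemaciclib. Doses started at or near clinical Cmax (10 microM when unknown) and fell in half-log steps.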

## CC(=O)c1c(C)c2cnc(Nc3ccc(N4CCNCC4)cn3)nc2n(C2CCCC2)c1=O + CCN1CCN(Cc2ccc(Nc3ncc(F)c(-c4cc(F)c5nc(C)n(C(C)C)c5c4)n3)nc2)CC1
Second compound 0.01 µM
  IC50: > 300 nM
Second compound 0.0316 µM
  IC50: > 300 nM
Second compound 0.1 µM
  IC50: > 300 nM
Second compound 0.316 µM
  IC50: > 300 nM
Second compound 1 µM
  IC50: > 300 nM
Second compound 0.01 µM, first compound 0.000949 µM
  viability, T/C: 99.7%
Second compound 0.01 µM, first compound 0.003 µM
  viability, T/C: 97.4%
Second compound 0.01 µM, first compound 0.00949 µM
  viability, T/C: 93.6%
Second compound 0.01 µM, first compound 0.03 µM
  viability, T/C: 88.4%
Second compound 0.01 µM, first compound 0.0949 µM
  viability, T/C: 84%
Second compound 0.01 µM, first compound 0.3 µM
  viability, T/C: 96.5%
Second compound 0.0316 µM, first compound 0.000949 µM
  viability, T/C: 92.2%
Second compound 0.0316 µM, first compound 0.003 µM
  viability, T/C: 99.2%
Second compound 0.0316 µM, first compound 0.00949 µM
  viability, T/C: 85.5%
Second compound 0.0316 µM, first compound 0.03 µM
  viability, T/C: 89.1%
Second compound 0.0316 µM, first compound 0.0949 µM
  viability, T/C: 82.6%
Second compound 0.0316 µM, first compound 0.3 µM
  viability, T/C: 86.6%
Second compound 0.1 µM, first compound 0.000949 µM
  viability, T/C: 101%
Second compound 0.1 µM, first compound 0.003 µM
  viability, T/C: 96.1%
Second compound 0.1 µM, first compound 0.00949 µM
  viability, T/C: 90.8%
Second compound 0.1 µM, first compound 0.03 µM
  viability, T/C: 92.8%
Second compound 0.1 µM, first compound 0.0949 µM
  viability, T/C: 85.3%
Second compound 0.1 µM, first compound 0.3 µM
  viability, T/C: 95.7%
Second compound 0.316 µM, first compound 0.000949 µM
  viability, T/C: 106%
Second compound 0.316 µM, first compound 0.003 µM
  viability, T/C: 93.9%
Second compound 0.316 µM, first compound 0.00949 µM
  viability, T/C: 93.7%
Second compound 0.316 µM, first compound 0.03 µM
  viability, T/C: 83.7%
Second compound 0.316 µM, first compound 0.0949 µM
  viability, T/C: 88%
Second compound 0.316 µM, first compound 0.3 µM
  viability, T/C: 108%
Second compound 1 µM, first compound 0.000949 µM
  viability, T/C: 74.7%
Second compound 1 µM, first compound 0.003 µM
  viability, T/C: 75%
Second compound 1 µM, first compound 0.00949 µM
  viability, T/C: 77.5%
Second compound 1 µM, first compound 0.03 µM
  viability, T/C: 71.4%
Second compound 1 µM, first compound 0.0949 µM
  viability, T/C: 83.1%
Second compound 1 µM, first compound 0.3 µM
  viability, T/C: 74.6%

## CC1(C)CCC(CN2CCN(c3ccc(C(=O)NS(=O)(=O)c4ccc(NCC5CCOCC5)c([N+](=O)[O-])c4)c(Oc4cnc5[nH]ccc5c4)c3)CC2)=C(c2ccc(Cl)cc2)C1 + CC(C)NCC(C(=O)N1CCN(c2ncnc3c2C(C)CC3O)CC1)c1ccc(Cl)cc1
Second compound 0.1 µM
  IC50: 4760 nM
Second compound 0.316 µM
  IC50: 3030 nM
Second compound 1 µM
  IC50: 1380 nM
Second compound 3.16 µM
  IC50: < 31.6 nM
Second compound 10 µM
  IC50: < 31.6 nM
Second compound 0.1 µM, first compound 0.0316 µM
  viability, T/C: 109%
Second compound 0.1 µM, first compound 0.1 µM
  viability, T/C: 89.5%
Second compound 0.1 µM, first compound 0.316 µM
  viability, T/C: 98.3%
Second compound 0.1 µM, first compound 1 µM
  viability, T/C: 94.6%
Second compound 0.1 µM, first compound 3.16 µM
  viability, T/C: 71.3%
Second compound 0.1 µM, first compound 10 µM
  viability, T/C: 11.3%
Second compound 0.316 µM, first compound 0.0316 µM
  viability, T/C: 69.8%
Second compound 0.316 µM, first compound 0.1 µM
  viability, T/C: 72.2%
Second compound 0.316 µM, first compound 0.316 µM
  viability, T/C: 82.4%
Second compound 0.316 µM, first compound 1 µM
  viability, T/C: 69.5%
Second compound 0.316 µM, first compound 3.16 µM
  viability, T/C: 49.3%
Second compound 0.316 µM, first compound 10 µM
  viability, T/C: 7.93%
Second compound 1 µM, first compound 0.0316 µM
  viability, T/C: 56.9%
Second compound 1 µM, first compound 0.1 µM
  viability, T/C: 63.8%
Second compound 1 µM, first compound 0.316 µM
  viability, T/C: 55%
Second compound 1 µM, first compound 1 µM
  viability, T/C: 56.6%
Second compound 1 µM, first compound 3.16 µM
  viability, T/C: 34.1%
Second compound 1 µM, first compound 10 µM
  viability, T/C: 5.02%
Second compound 3.16 µM, first compound 0.0316 µM
  viability, T/C: 34.4%
Second compound 3.16 µM, first compound 0.1 µM
  viability, T/C: 37.7%
Second compound 3.16 µM, first compound 0.316 µM
  viability, T/C: 38.5%
Second compound 3.16 µM, first compound 1 µM
  viability, T/C: 36.4%
Second compound 3.16 µM, first compound 3.16 µM
  viability, T/C: 26.1%
Second compound 3.16 µM, first compound 10 µM
  viability, T/C: 2.19%
Second compound 10 µM, first compound 0.0316 µM
  viability, T/C: 17.4%
Second compound 10 µM, first compound 0.1 µM
  viability, T/C: 18.9%
Second compound 10 µM, first compound 0.316 µM
  viability, T/C: 17.9%
Second compound 10 µM, first compound 1 µM
  viability, T/C: 19.5%
Second compound 10 µM, first compound 3.16 µM
  viability, T/C: 9.97%
Second compound 10 µM, first compound 10 µM
  viability, T/C: 0.99%
